Laboratory results from patent US6423701B1, “Water soluble amine esters of testosterone for intranasal administration” (University of Kentucky, priority 1996, dated 2002).

Test: Nasal absorption of TSDG in rats: plasma levels after intranasal and intravenous administration, HPLC
Assay type: in vivo
Conditions: male, Sprague-Dawley, rat
Experimental: Male Sprague-Dawley rats weighing 250-275 gm were used. Animals were fasted overnight before the experiment, but water was given ad libitum. All surgical procedures were performed under sodium pentobarbital anesthesia (40 mg/kg i.p.). An incision was made in the neck, and the trachea was cannulated with a polyethylene tube. A closed tube was inserted through the esophagus to the posterior part of the nasal cavity. The nasopalatine passage was closed with an adhesive agent to prevent drainage of the drug from the nasal cavity to the mouth.
Blood samples were collected from a cannula inserted into the femoral artery. For intravenous administration, the jugular vein was cannulated for administering the dose.
For intravenous administration, the same dose of the drug was injected through the jugular vein.
Blood samples were collected at 0, 5, 10, 20, 30, 40, 60, 90, 120, 150, and 180 minutes. After immediate centrifugation (3000×g for 3 min), the plasma was separated. The animal was sacrificed after the last sample was obtained, and the samples were then analyzed by HPLC, using the method of Hsyu et al. (Pharm. Res. 11:156-159, 1994). Briefly, plasma concentrations of testosterone free base were determined via a HPLC protocol which included solid-phase extraction, separation on a reverse-phase cyano column, and UV detection at 305 nm.

`C[C@]12CC[C@H]3[C@@H](CCC4=CC(=O)CC[C@@]43C)[C@@H]1CC[C@@H]2O` [TS, 17β-hydroxyandrost-4-en-3-one] gave an AUC (inhaled or intranasal, intranasal, dose 25 mg/kg) of 1830 ng·h/mL, an AUC (inhaled or intranasal, intranasal, dose 50 mg/kg) of 3490 ng·h/mL and an AUC (intravenous, dose 25 mg/kg) of 1770 ng·h/mL. It also gave an AUC (intravenous, dose 50 mg/kg) of 3780 ng·h/mL.
